# “Also recorded” adds a separate entry of the source.
# Assays:
# [1] = tested on: endothelium intact aortic rings; experiment: Effect on ACh relaxation of precontracted rat aortic rings; format: cell-based; conditions: for Rmax of ACh relaxation: n=5
# Protocol: (§1) After wash out and re-equilibration for 30 min, the aortic rings were then submaximally precontracted with PE and U46619, which were used to produce an active tension of 45-60% of the KPSS-induced maximum contraction. When investigating the effects of the flavonoids, flavonol, flavone-3-hemiadipate (F3HA), 3′, 4′-dihydroxyflavone, 3′,4′-dihydroxyflavonol, 3′,4′-dihydroxyflavone-3-hemiadipate (DiOHF3HA), and flavone-3-phosphate (F3P) on vasorelaxant responses, rings were incubated with one of the compounds for 20 mins before they were precontracted submaximally, followed by a cumulative-concentration response curve to ACh (100 nM-10 μM) or SNP ([…]). In experiments using F3P 1000U/L phosphatase was used in some experiments to cleave the phosphate. Some experiments were conducted in the presence and absence of butyryl cholinesterase (BuCHE, 1000 U/L) to cleave the adipate in DiOHF3HA and F3HA.
# [2] = tested on: endothelium-intact aortic rings treated with pyrogallol; experiment: Vasorelaxation to ACh in the presence of oxidative stress (pyrogallol); format: cell-based, rat; conditions: pyrogallol 2×10^−5 M, F3P plus phosphatase; disodium salt
# Protocol: Control cumulative relaxation responses to ACh were compared with those obtained from endothelium-intact aortic rings treated with pyrogallol (2×10^−5 M). The effects of vehicle (0.1% DMSO), phosphatase (1000 U/L) or F3P (10^−6-10^−4 M) on responses to ACh in the rat isolated aortic rings exposed to pyrogallol (2×10^−5 M) were also determined. Pyrogallol was added when the aortic rings had reached a stable level of contraction with PE and U44619 at a level between 50 and 70% of KPSS-induced tension and 10 minutes was allowed before determining the cumulative concentration-response curves to ACh. In some experiments using F3P 1000 U/L phosphatase was used to cleave the phosphate.
# anaesthetised rats = experiment: Arterial pressure and heart rate in anaesthetised rats after intravenous injection; format: in vivo, rat; conditions: intravenous, anaesthetised rats; disodium salt
# Protocol: A unit dosage of an aqueous solution of 3-hydroxyflavone-3-hemiadipate (15) was administered to a group of male anesthetized Sprague Dawley rats intravenously and the blood pressure monitored over a period of time.
# Male Sprague-Dawley rats (250-350 g) were anaesthetised with pentobarbitone sodium (60 mg kg^−1, ip). The trachea was isolated and cannulated with polyethylene tracheal tube (I.D. 2.0 mm), and the rat was allowed to breathe spontaneously.
# The right carotid artery was cannulated and connected with a heparinised saline filled cannula (O.D. 0.75, I.D, 0.58 mm) and connected to a pressure transducer. Mean and phasic arterial pressure were continuously measured and recorded on a polygraph. The heart rate, was derived from the phasic arterial pressure using a tachometer.
# DiOHF3HA ([…]) was injected intravenously, allowing at least 30 min between injections, and the peak changes in mean arterial pressure and heart rate measured. […] In a separate group of experiments ACh (0.3 mg/kg iv) and phenylephrine (PE, […]) were injected before and 30 minutes after DiOHF3HA (3 mg/kg iv), a time when arterial pressure and heart rate had returned to control levels. […]
# [3] = tested on: endothelium intact aortic rings; experiment: Ca2+-induced contraction of rat aortic rings in Ca2+-free high-K+ solution; format: cell-based
# Protocol: To determine the effect of flavonoids on responses to the influx of extracellular Ca^2+, contractile responses to exogenous application of Ca^2+ were examined in the presence of flavonoids in Ca^2+-free high-K^+ solution (60 mM, KPSS). Aortic rings were initially equilibrated at a resting tension of 1 g in normal Ca^2+-free PSS for 45 minutes. The bath medium was then replaced with Ca^2+-free KPSS for 45 minutes to determine a reference contraction to Ca^2+ (3×10^−3 M). Following a 30 minute re-equilibration period with Ca^2+-free PSS, the cumulative contractile responses to Ca^2+ (10^−5−3×10^−3 M) were determined in KPSS in the presence of a range of concentrations (10^−8-10^−4 M) of vehicle, 3′,4′-dihydroxyflavonol, 3-hydroxyflavone-3-hemiadipate, 3′,4′-dihydroxy-3-hemiadipate, 3-hydroxyflavone-3-phosphate. A 20 minute incubation period was allowed for the flavonoids before examining the responses to Ca^2+.
# To determine the effect of flavonoids on responses to the influx of extracellular Ca^2+, contractile responses to exogenous application of Ca^2+ were examined in the presence of flavonoids in Ca^2+-free high-K^+ solution (60 mM, K+-PSS). Aortic rings were initially equilibrated at a resting tension of 1 g in Ca^2+-free PSS for 45 minutes. The bath medium was then replaced with Ca^2+-free K+-PSS for 45 minutes to determine a reference contraction to added Ca^2+ (3 mM). Following a 30 minute re-equilibration period with Ca^2+-free PSS, the cumulative contractile responses to Ca^2+ (10^−5−3×10^−3 M) were determined in K^+ PSS in the presence of vehicle (0.1% DMSO), or a range of concentrations (10^−7-10^−4 M) of 3′-hydroxyflavonol, F3HA, DiOHF3HA or F3P. A 20 minute incubation period was allowed for the flavonoids before examining the responses to Ca^2+. Experiments were conducted in the presence and absence of BuCHE (1000 U/L) to cleave the adipate in F3HA and DiOHF3HA. In experiments using F3P, phosphatase (1000 U/L) was used in some experiments to cleave the phosphate.
# aortic rings = experiment: Effect on SNP relaxation of precontracted rat aortic rings; format: cell-based; conditions: in the presence of BuCHE or phosphatase
# Protocol: as §1
# [4] = tested on: superoxide anions generated in rat aorta; experiment: Superoxide anion production in rat isolated aortic segments (lucigenin chemiluminescence, NADPH); format: cell-based; conditions: disodium salt
# Protocol: Superoxide anion production in rat isolated aortic segments was determined using lucigenin chemiluminescence. Aortic rings were prepared as described above and then placed in ice-cold Krebs-(N-[2-Hydroxyethyl]piperazine-N′-[2-ethanesulfonic acid] (HEPES buffer) (composition (mM); NaCl 99.0, KCl 4.7, KH2PO4 1.0, MgSO4·7H2O 1.2, D-glucose 11.0, NaHCO3 25.0, CaCl2·2H2O 2.5, Na-HEPES 20.0). Aortic rings were pre-incubated for 45 minutes at 37° C. with a pH 7.4, in Krebs-HEPES buffer containing diethylthiocarbamic acid (DETCA, 10^−3 M) to inactivate superoxide dismutase and β-nicotinamide adenine dinucleotide phosphate (NADPH, 10^−4 M) as a substrate for NADPH oxidase and either 3′,4′-dihydroxyflavonol (10^−4 M) as a positive control, vehicle, 3-hydroxyflavone-3-hemiadipate, 3′,4′-dihydroxy-3-hemiadipate, 3-hydroxyflavone-3-phosphate (10^−8-10^−4 M). Background photon emission was measured for 12 cycles in a 96-well Optiplate containing 0.3 ml per well of Krebs-HEPES buffer together with lucigenin (5×10^−5 M) and vehicle or flavonoid (10^−8-10^−4 M). Each cycle was counted every one minute. After background reading was completed the incubated aortic rings were transferred to the appropriate wells and photon emission was recounted as described above. The tissue was then placed in a 65° C. oven for 48 hours to allow superoxide production to be normalised to dry tissue weight.
# The effects of vehicle, 3′,4′-dihydroxyflavone-3-hemiadipate (21) (DiOHF3HA, 10^−8 M-10^−4 M) and DiOHF (10^−4 M) in the presence and absence of Butyryl cholinesterase (BuCHE), 100, 300 and 1000 U/L) on the level of superoxide anions generated in rat isolated aortic segments in the presence of NADPH was expressed as a percentage of control. The method used was as described above except for the addition of the butyryl cholinesterase.
# The effect of vehicle, 3-hydroxyflavone-3-phosphate (10^−8 to 10^−4 M) in the presence or absence of phosphatase (1000 U/L) on the level of superoxide anions generated in rat aorta in the presence of NADPH expressed as a percentage of control was determined as described above for the 3′,4′-dihydroxyflavone-3-hemiadipate.
structure (smiles),measurement,setting,value
"O=c1c(OP(=O)([O-])[O-])c(-c2ccccc2)oc2ccccc12.[Na+].[Na+] [F3P, 3-Hydroxyflavone-3-phosphate disodium salt]",Rmax of ACh relaxation,[1]; F3P 10^−4 M + phosphatase,100 ± 1
same,Rmax of ACh relaxation,[1]; F3P 10^−5 M + phosphatase,100 ± 1
same,effect on relaxant response to ACh,"[1]; in the presence of phosphatase, disodium salt",enhanced; also recorded: increased the sensitivity of rat aortic rings to relaxation by ACh
same,maximum response to ACh under oxidant stress,[2],the response was restored; also recorded: enhance endothelium-dependent relaxation in the presence of oxidant stress
same,change in heart rate (HR),anaesthetised rats,dose-dependent decrease in HR; also recorded: only small concentration dependent decreases
same,change in mean arterial pressure (MAP),anaesthetised rats,dose-dependent decreases in MAP; also recorded: only small concentration dependent decreases
same,effect on Ca^2+-induced contraction,"[3]; alone, highest concentration 10^−4 M",partial inhibition of the calcium-induced contraction
same,effect on Ca^2+-induced contraction,"[3]; alone, over the concentration range tested",small inhibition of calcium-induced contraction
same,effect on Ca^2+-induced contraction,"[3]; in the presence of BuCHE or phosphatase (1000 U/L), listed as flavone-3-phosphate, disodium salt",markedly enhanced the inhibitory effects
same,effect on relaxant response to SNP,aortic rings,not SNP
same,effect on superoxide generation,"[4]; in the presence of cleaving enzyme (BuCHE for hemiadipates, phosphatase for phosphate, 1000 U/L)",concentration-dependent inhibition of superoxide levels; also recorded: inhibit superoxide levels produced by rat aorta
same,effect on superoxide generation,"[4]; in the presence of cleaving enzyme (BuCHE for hemiadipates, phosphatase for phosphate, 1000 U/L), listed as flavone-3-phosphate",concentration dependent decrease in the levels of superoxide
same,effect on superoxide generation,"[4]; substance alone, no added esterase/phosphatase, up to 10^−4 M, NADPH",no effect on superoxide generation; also recorded: no antioxidant or vascular activity
same,effect on superoxide generation,"[4]; substance alone, no added esterase/phosphatase, up to 10^−4 M, NADPH, listed as 3-hydroxyflavone-3-phosphate",measurable effect on the superoxide anion generation

# — patent US8017649B2, “Flavonoid compounds and uses thereof” (Howard Florey Institute of Experimental Physiology and …, priority 2005, dated 2011)
